In PMC11678425, “(-)-Syringaresinol Exerts an Antidepressant-like Activity in Mice by Noncompetitive Inhibition of the Serotonin Transporter” (Pharmaceuticals, 2024):

Legend:
SERT = conditions: cited from earlier work
SERT Y107C/C109A = assay: Cysteine accessibility, extracellular pathway: MTSET reactivity with Y107C/C109A; assay type: cell-based; conditions: 10 μM ligand, compared with the control (MTSET alone)
SERT S277C/X5C = assay: Cysteine accessibility, cytoplasmic pathway: MTSEA reactivity with S277C/X5C; assay type: cell-based; conditions: 10 μM ligand, digitonin-permeabilized cells, compared with the control
hSERT WT = molecular target: T1, hSERT WT (Homo sapiens, UniProt P31645); assay: APP^+ uptake, hSERT WT; assay type: cell-based; conditions: WT
T1 construct: forward and reverse primers were used to amplify a full-length hSERT; expressed in transfected cells; host or cells: HeLa cells (CCL-2), transient, pcDNA3.1

hSERT Q111N = molecular target: T2, hSERT Q111N (Homo sapiens, UniProt P31645, Q111N); assay: APP^+ uptake, hSERT Q111N; assay type: cell-based; conditions: S2 site mutant
T2 construct: forward and reverse primers were used to amplify a full-length hSERT; expressed in transfected cells; host or cells: HeLa cells, transient, pcDNA3.1

hSERT I327A = molecular target: T3, hSERT I327A (Homo sapiens, UniProt P31645, I327A); assay: APP^+ uptake, hSERT I327A; assay type: cell-based; conditions: S2 site mutant
T3 construct: forward and reverse primers were used to amplify a full-length hSERT; expressed in transfected cells; host or cells: HeLa cells, transient, pcDNA3.1

hSERT D328A = molecular target: T4, hSERT D328A (Homo sapiens, UniProt P31645, D328A); assay: APP^+ uptake, hSERT D328A; assay type: cell-based; conditions: S2 site mutant
T4 construct: forward and reverse primers were used to amplify a full-length hSERT; expressed in transfected cells; host or cells: HeLa cells, transient, pcDNA3.1

hSERT E493N = molecular target: T5, hSERT E493N (Homo sapiens, UniProt P31645, E493N); assay: APP^+ uptake, hSERT E493N; assay type: cell-based; conditions: S2 site mutant
T5 construct: forward and reverse primers were used to amplify a full-length hSERT; expressed in transfected cells; host or cells: HeLa cells, transient, pcDNA3.1

hSERT E494Q = molecular target: T6, hSERT E494Q (Homo sapiens, UniProt P31645, E494Q); assay: APP^+ uptake, hSERT E494Q; assay type: cell-based; conditions: S2 site mutant
T6 construct: forward and reverse primers were used to amplify a full-length hSERT; expressed in transfected cells; host or cells: HeLa cells, transient, pcDNA3.1

hSERT T497A = molecular target: T7, hSERT T497A (Homo sapiens, UniProt P31645, T497A); assay: APP^+ uptake, hSERT T497A; assay type: cell-based; conditions: S2 site mutant
T7 construct: forward and reverse primers were used to amplify a full-length hSERT; expressed in transfected cells; host or cells: HeLa cells, transient, pcDNA3.1

hSERT G498T = molecular target: T8, hSERT G498T (Homo sapiens, UniProt P31645, G498T); assay: APP^+ uptake, hSERT G498T; assay type: cell-based; conditions: S2 site mutant
T8 construct: forward and reverse primers were used to amplify a full-length hSERT; expressed in transfected cells; host or cells: HeLa cells, transient, pcDNA3.1

hSERT P499G = molecular target: T9, hSERT P499G (Homo sapiens, UniProt P31645, P499G); assay: APP^+ uptake, hSERT P499G; assay type: cell-based; conditions: S2 site mutant
T9 construct: forward and reverse primers were used to amplify a full-length hSERT; expressed in transfected cells; host or cells: HeLa cells, transient, pcDNA3.1

hSERT F556A = molecular target: T10, hSERT F556A (Homo sapiens, UniProt P31645, F556A); assay: APP^+ uptake, hSERT F556A; assay type: cell-based; conditions: S2 site mutant
T10 construct: forward and reverse primers were used to amplify a full-length hSERT; expressed in transfected cells; host or cells: HeLa cells, transient, pcDNA3.1

hSERT S559A = molecular target: T11, hSERT S559A (Homo sapiens, UniProt P31645, S559A); assay: APP^+ uptake, hSERT S559A; assay type: cell-based; conditions: S2 site mutant
T11 construct: forward and reverse primers were used to amplify a full-length hSERT; expressed in transfected cells; host or cells: HeLa cells, transient, pcDNA3.1

hSERT P560G = molecular target: T12, hSERT P560G (Homo sapiens, UniProt P31645, P560G); assay: APP^+ uptake, hSERT P560G; assay type: cell-based; conditions: S2 site mutant
T12 construct: forward and reverse primers were used to amplify a full-length hSERT; expressed in transfected cells; host or cells: HeLa cells, transient, pcDNA3.1

hSERT P561G = molecular target: T13, hSERT P561G (Homo sapiens, UniProt P31645, P561G); assay: APP^+ uptake, hSERT P561G; assay type: cell-based; conditions: S2 site mutant
T13 construct: forward and reverse primers were used to amplify a full-length hSERT; expressed in transfected cells; host or cells: HeLa

hSERT Q562N = molecular target: T14, hSERT Q562N (Homo sapiens, UniProt P31645, Q562N); assay: APP^+ uptake, hSERT Q562N; assay type: cell-based; conditions: S2 site mutant
T14 construct: forward and reverse primers were used to amplify a full-length hSERT; expressed in transfected cells; host or cells: HeLa

hSERT L563A = molecular target: T15, hSERT L563A (Homo sapiens, UniProt P31645, L563A); assay: APP^+ uptake, hSERT L563A; assay type: cell-based; conditions: S2 site mutant
T15 construct: forward and reverse primers were used to amplify a full-length hSERT; expressed in transfected cells; host or cells: HeLa

hSERT R564A = molecular target: T16, hSERT R564A (Homo sapiens, UniProt P31645, R564A); assay: APP^+ uptake, hSERT R564A; assay type: cell-based; conditions: S2 site mutant
T16 construct: forward and reverse primers were used to amplify a full-length hSERT; expressed in transfected cells; host or cells: HeLa

hSERT L565A = molecular target: T17, hSERT L565A (Homo sapiens, UniProt P31645, L565A); assay: APP^+ uptake, hSERT L565A; assay type: cell-based; conditions: S2 site mutant
T17 construct: forward and reverse primers were used to amplify a full-length hSERT; expressed in transfected cells; host or cells: HeLa

hSERT Y579A = molecular target: T18, hSERT Y579A (Homo sapiens, UniProt P31645, Y579A); assay: APP^+ uptake, hSERT Y579A; assay type: cell-based; conditions: S2 site mutant
T18 construct: forward and reverse primers were used to amplify a full-length hSERT; expressed in transfected cells; host or cells: HeLa

hSERT T583A = molecular target: T19, hSERT T583A (Homo sapiens, UniProt P31645, T583A); assay: APP^+ uptake, hSERT T583A; assay type: cell-based; conditions: S2 site mutant
T19 construct: forward and reverse primers were used to amplify a full-length hSERT; expressed in transfected cells; host or cells: HeLa

In the case of `COc1cc(C2OCC3C(c4cc(OC)c(OC5OC(CO)C(O)C(O)C5OC5OCC(O)(CO)C5O)c(OC)c4)OCC23)cc(OC)c1O` (single isomer, unassigned; (-)) [SAG, (-)-syringaresinol-4-O-D-apiofuranosyl-(1→2)-D-glucopyranoside], the “inhibitory potency against SERT” value (SERT) is listed as “a few micromolar range” and the “mode of inhibition of SERT activity” value (SERT) is listed as “noncompetitively inhibit”.
For `COc1cc(C2OCC3C(c4cc(OC)c(O[C@@H]5O[C@H](CO)[C@@H](O)[C@H](O)[C@H]5O)c(OC)c4)OCC23)cc(OC)c1O[C@@H]1O[C@H](CO)[C@@H](O)[C@H](O)[C@H]1O` (single isomer, unassigned; (-)) [SBG, (-)-syringaresinol-4,4′-bis-O-β-D-glucopyranoside], the “inhibitory potency against SERT” value (SERT) is given as “a few micromolar range” and the “mode of inhibition of SERT activity” value (SERT) is given as “noncompetitively inhibit”.
In the case of `NCCc1c[nH]c2ccc(O)cc12` [5-HT, 5-hydroxytryptamine, reference compound], the “rate constant of MTSET reactivity with Y107C/C109A” value (SERT Y107C/C109A) is reported as “decreased” and the “rate constant of MTSEA reactivity with S277C/X5C” value (SERT S277C/X5C) is reported as “increased”.
`CN(C)c1ccc(-c2cc[n+](C)cc2)cc1` [APP^+, 4-(4-(dimethylamino)phenyl)-1-methylpyridinium] showed a Vmax (hSERT WT; APP^+ transport) of 22.98 ± 0.92 AFU/min, a Km (hSERT WT) of 2.24 ± 0.45 µM and a Vmax (hSERT Q111N; APP^+ transport) of 26.93 ± 1.35 AFU/min. For the same compound, the Km (hSERT Q111N) was 3.69 ± 0.36 µM, the Vmax (hSERT I327A; APP^+ transport) was 26.54 ± 1.43 AFU/min and the Km (hSERT I327A) was 4.27 ± 0.79 µM. It also gave a Vmax (hSERT D328A; APP^+ transport) of 27.83 ± 0.85 AFU/min, a Km (hSERT D328A) of 3.81 ± 0.27 µM and a Vmax (hSERT E493N; APP^+ transport) of 25.48 ± 0.96 AFU/min. For the same compound, the Km (hSERT E493N) was 4.83 ± 0.19 µM, the Vmax (hSERT E494Q; APP^+ transport) was 31.12 ± 0.89 AFU/min and the Km (hSERT E494Q) was 6.83 ± 0.86 µM. It also gave a Vmax (hSERT T497A; APP^+ transport) of 26.63 ± 1.09 AFU/min, a Km (hSERT T497A) of 3.85 ± 0.06 µM and a Vmax (hSERT G498T; APP^+ transport) of 26.30 ± 1.52 AFU/min. It also gave a Km (hSERT G498T) of 3.75 ± 0.32 µM, a Vmax (hSERT P499G; APP^+ transport) of 27.28 ± 0.43 AFU/min and a Km (hSERT P499G) of 3.72 ± 0.45 µM. The Vmax (hSERT F556A; APP^+ transport) was 26.84 ± 1.74 AFU/min, the Km (hSERT F556A) was 4.69 ± 1.02 µM and the Vmax (hSERT S559A; APP^+ transport) was 23.68 ± 0.57 AFU/min. It also gave a Km (hSERT S559A) of 3.82 ± 0.55 µM, a Vmax (hSERT P560G; APP^+ transport) of 21.70 ± 0.90 AFU/min and a Km (hSERT P560G) of 1.85 ± 0.16 µM. For the same compound, the Vmax (hSERT P561G; APP^+ transport) was 26.55 ± 1.08 AFU/min, the Km (hSERT P561G) was 2.73 ± 0.09 µM and the Vmax (hSERT Q562N; APP^+ transport) was 23.57 ± 1.49 AFU/min. It also gave a Km (hSERT Q562N) of 1.85 ± 0.36 µM, a Vmax (hSERT L563A; APP^+ transport) of 23.53 ± 0.45 AFU/min and a Km (hSERT L563A) of 1.53 ± 0.07 µM. For the same compound, the Vmax (hSERT R564A; APP^+ transport) was 27.10 ± 0.08 AFU/min, the Km (hSERT R564A) was 3.41 ± 0.12 µM and the Vmax (hSERT L565A; APP^+ transport) was 21.13 ± 0.16 AFU/min. The Km (hSERT L565A) was 0.68 ± 0.04 µM, the Vmax (hSERT Y579A; APP^+ transport) was 23.89 ± 2.33 AFU/min and the Km (hSERT Y579A) was 2.81 ± 0.08 µM. For the same compound, the Vmax (hSERT T583A; APP^+ transport) was 26.97 ± 0.26 AFU/min and the Km (hSERT T583A) was 3.68 ± 0.15 µM.
